Test results from US20110212185A1, “WATER THAT EXPRESSES PATHOGEN-RESISTANCE GENES (PR GENE CLUSTERS) TO ENCODE PLANT IMMUNOPROTEINS, A METHOD OF PREVENTING PLANT DISEASES USING THE WATER, AND A DEVICE FOR PRODUCING THE WATER” (priority 2008, published 2011).

Key:
[1] = system: plant body or plant cells; conditions: supplied directly to plant body or plant cells; 'or more'; cited from earlier work
carp = conditions: data sheet of Hokho lateral-row Oryzemate granular wettable powder; cited from earlier work
[2] = CLA chemiluminescence measurement of superoxide anion radicals in water; type: physicochemical; conditions: KO2 marker in FIG. 4; extinguished within several milliseconds
Procedure: The measurement of the superoxide anion radicals in water is performed in the following manner. […] Further, timings for collecting samples are set to immediately before the starting of reaction, 15 minutes after the start of reaction, and 30 minutes after the starting of reaction. At respective timings, 500 μl of aqueous solution in the reservoir is sampled using a micropipette and is added to 500 μl of 25 mM phosphoric acid potassium buffer solution (pH7.0) to which CLA is preliminarily added (1:1 mixture, total: 1 ml) and CLA luminescence is measured for 5 minutes after dropping the solution. The intensity of luminescence is indicated by relative luminescence unit (hereinafter referred to as rlu). […] Further, KO2 solution obtained by dissolving KO2 (potassium superoxide) in an organic solvent is added to CLA solution thus preparing a calibration curve of superoxide anion by chemiluminescence dependent on CLA. Generally, a method which dissolves KO2 in crown-ether-based organic solution and uses the solution for the determination of superoxide is used. However, to allow the reaction with CLA in aqueous solution in a non-hydrophobic environment, dimethylsulfoxide (DMSO) is used as organic solvent. Using this method, CLA luminescence by adding KO2 solution is induced whereby the calibration curve of superoxide anion radicals is prepared.

Compound	concentration necessary to actually confirm the expression of the genes [1]	further results
OO [hydrogen peroxide]	2 to 10 mM	–
C=CCOC1=NS(=O)(=O)c2ccccc21 [probenazole]	–	LC50 value (48 hours) for carp (carp): 8 ppm
O=C(O)c1ccccc1O [salicylic acid]	0.1 to 0.5 mM	–
Potassium superoxide [KO2]	–	time for which emission of light is observed after dropping into water [2]: < 2 s
